{
  "source": "patent US20230114207A1",
  "about": "“THE COMBINATION OF CYCLIN DEPENDENT KINASE 7 INHIBITOR AND IMMUNOTHERAPY FOR TREATMENT OF CANCER” (Dana-Farber Cancer Institute, Inc., priority 2019, published 2023)",
  "key": {"DMS79 cells": {"test_system": "DMS79 cells", "test": "BrdU analysis", "type": "cell-based, human", "settings": "100 nM, 24 and 48 hour", "protocol": "Cells were seeded in 6-well plates (0.5-1×10^6 cells/well) in media and treated with YKL-5-124 at indicated concentrations and time points. Prior to collection, cells were pulsed with […] BrdU (BD Biosciences, #559619) for 2-4 hr (depending on cell line doubling time) and collected by centrifugation. Hereafter cells were permeabilized, fixated and stained according to BrdU kit instruction (BD Biosciences, Cat #559619). Cells were gated for BrdU incorporation (FITC) and 7-aminoactinomycin D (7-AAD) to quantify cells in G1, S (BrdU positive) and G2/M."}, "RPP631 cells": {"test_system": "RPP631 cells", "test": "EdU and MCM2 imaging by STORM", "type": "cell-based, mouse", "settings": "100 nM, 48 and 72 hr", "protocol": "RPP631 cells were incubated in the presence of 100 nM YKL-5-124 for 48-72 hr. EdU was pulsed during the last 30 minutes of YKL-5-124 treatment. Treated cells were pre-extracted using 0.5% Triton in CSK buffer (10 mM Hepes, 300 mM Sucrose, 100 mM NaCl, and 3 mM MgCl2, pH=7.6) for 10 minutes, and fixed with paraformaldehyde (4%) for 30 minutes. Cells were then rinsed 3 times with PBS and blocked (2% glycine, 2% BSA, 0.2% gelatin, and 50 mM NH4Cl in PBS) overnight at 4° C. for further staining. […]\nSTORM imaging was performed on a customized inverted microscope. […] Cell samples were sequentially illuminated with 639 and 750 laser lines and the emitted fluorescence was collected by the same objective with a 2× magnification tube lens (Diagnostic Instruments). The fluorescence was then filtered by single band filters (Semrock FF01-676/37 and FF02-809/81) switched in a filter wheel accordingly. […]\nEach 2000-frame single-molecule image stack was submitted to a home-built software for precise single-molecule localization. […] The fitting accuracy was evaluated using Cramer-Rao Lower Bound (CRLB). Note that the patterned read-out noise of the sCMOS camera was calibrated before imaging. Such read-out noise for each pixel was approximated into a Gaussian distribution and convolved with the Poisson shot noise for MLE fitting. […] The number of fluorophores is proportional to the quantity of EdU and MCM2. […]"}, "[1]": {"test_system": "Cyclin E, A, B, D in RPP631 and DMS79", "test": "Cyclin expression (western blotting, qRT-PCR)", "type": "cell-based, mouse, human", "settings": "24 hours", "protocol": "Cell pellets were collected and then subjected to total RNA extraction using RNeasy Plus Mini Kit (QIAGEN, Cat #74136) according to the manufacturer's instructions, or using TRIzol:Chloroform phase-separation by centrifugation followed by RNA precipitation using isopropanol. The extracted RNA was reversely transcribed into cDNA using the High-Capacity RNA-to-cDNA™ Kit (Thermo Fisher Scientific, Cat #4387406) according to the manufacturer's instructions. The obtained cDNA samples were diluted and used for RT-qPCR. PowerUp™ SYBR™ Green Master Mix (Thermo Fisher Scientific, Cat #A25742) or TaqMan Gene Expression Master Mix (Life Technologies, Cat #4369514). Gene specific primers with sequences listed in Table 3 were used for PCR amplification and detection on the StepOnePlus™ Real-Time PCR System (Thermo Fisher Scientific). RT-qPCR data were normalized to Actb (mouse cells) or GUSB (human cells) and presented as fold changes of gene expression in the test sample compared to the control.\nCells in culture were collected by centrifuging at 1,500 rpm and then washed with ice-cold PBS twice to completely remove residual medium. […] Protein concentrations in lysates were measured by Pierce™ BCA Protein Assay Kit (Thermo Fisher Scientific, Cat #23225) and followed by the addition of SDS loading buffer (6×) and heated at 95° C. for 5 min. […]"}},
  "data": [
    {"smiles": "C=CC(=O)Nc1ccc(C(=O)Nc2n[nH]c3c2CN(C(=O)N[C@H](CN(C)C)c2ccccc2)C3(C)C)cc1", "note": "[YKL-5-124]", "values": [
      {"measurement": "BrdU-incorporated S-phase cells", "setting": "DMS79 cells", "value": "significant decrease"},
      {"measurement": "EdU content in each nucleus and in each focus", "setting": "RPP631 cells", "value": "dramatic decrease"},
      {"measurement": "MCM2 content in each nucleus and replication focus", "setting": "RPP631 cells", "value": "significant decline"},
      {"measurement": "Cyclin E protein and mRNA (CCNE1) levels", "setting": "[1]", "value": "increase"},
      {"measurement": "expression of Cyclins A (CCNA1), B (CCNB1), and D (CCND1)", "setting": "[1]", "value": "remained unchanged"}
    ]}
  ]
}
